Among the test systems are SF-295 CNS; T-47D breast; NCI-H23 lung; UO-31 renal; MDA-MB-435; EKVX NSCLC; OVCAR-8 ovarian; HT29 colon; NCI-H522 lung; SR leukemia.
Common to all, as to assay: NCI-60 cell line screen, 48 h

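Method: 48-hour compound exposure of cells in 96-well plates, five concentrations, linear interpolation of endpoints. GI50 = concentration required for 50% inhibition of growth. Definition used: TGI = concentration required for complete inhibition of growth.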

Consider `Cc1ccc2sc3c(NCCCN)nc4ccccc4c3c(=O)c2c1`, for which the GI50 is 1.8 µM in the assay on SF-295 CNS; 1.89 µM in the assay on T-47D breast; 1.82 µM in the assay on NCI-H23 lung; 1.51 µM in the assay with UO-31 renal; 1.82 µM in the assay with MDA-MB-435; 1.89 µM in the assay on EKVX NSCLC. Besides, the GI50 with OVCAR-8 ovarian is 2.41 µM. The TGI with SF-295 CNS turned out to be 3.32 µM; with T-47D breast, 4.57 µM; with NCI-H23 lung, 3.37 µM; with UO-31 renal, 2.98 µM; in the assay on MDA-MB-435, 3.46 µM; with EKVX NSCLC it was 4.09 µM. Besides, the TGI with OVCAR-8 ovarian was found to be 5.91 µM.
Regarding `CCOC(=O)c1sc2nc(SC)nc3c2c1NCN3C`, the TGI is above 100 µM with SF-295 CNS; 25.9 µM with T-47D breast; 59.1 µM in the assay on NCI-H23 lung; 37.6 µM with UO-31 renal; above 100 µM with MDA-MB-435; above 100 µM in the assay with HT29 colon. The molecule further displayed a TGI in the assay with OVCAR-8 ovarian of 25.9 µM.
Take `Cc1cc(C)[n+]2c(c1)C=CC2`: the TGI is 71.8 µM with SF-295 CNS; 84.2 µM in the assay with NCI-H23 lung; above 100 µM in the assay on UO-31 renal; above 100 µM in the assay on EKVX NSCLC; above 100 µM in the assay with HT29 colon; 49.5 µM in the assay on NCI-H522 lung. The molecule further showed a TGI with OVCAR-8 ovarian above 100 µM.
Consider `CC1(C)CC(=O)c2c(N)n[nH]c2C1`, for which the TGI in the assay on SF-295 CNS, in the assay with NCI-H23 lung, in the assay with SR leukemia, in the assay on UO-31 renal, with MDA-MB-435 and in the assay on EKVX NSCLC was above 100 µM throughout. For the same molecule, the TGI with HT29 colon, in the assay with NCI-H522 lung and in the assay with OVCAR-8 ovarian was above 100 µM each time.
For `O=C(O)C(Cc1ccccc1)Cc1ccccc1`, the TGI in the assay with SF-295 CNS, with T-47D breast, in the assay on NCI-H23 lung, with UO-31 renal, in the assay on MDA-MB-435 and with EKVX NSCLC was above 100 µM throughout. For the same molecule, the TGI in the assay with HT29 colon, in the assay with NCI-H522 lung and in the assay with OVCAR-8 ovarian was above 100 µM in each case.
As to `Clc1ccc(C2SCc3nc4ccccc4n32)cc1` (stereo not drawn), the TGI in the assay on SF-295 CNS is above 100 µM; with NCI-H23 lung, 48.3 µM; in the assay with UO-31 renal it was 41.7 µM; in the assay on EKVX NSCLC it was above 100 µM; in the assay on HT29 colon, 49.4 µM; in the assay with NCI-H522 lung, 44.4 µM. In the assay with OVCAR-8 ovarian, this molecule returned a TGI above 100 µM.
Turning to `Cc1ccc(/C=c2\c(=O)[nH]c3nc4ccccc4c(=O)n23)cc1`, the TGI in the assay with SF-295 CNS was above 100 µM; in the assay on T-47D breast, above 100 µM; with NCI-H23 lung it was above 100 µM; in the assay with UO-31 renal, above 100 µM; in the assay on MDA-MB-435 it was 60.5 µM; with NCI-H522 lung, above 100 µM. In the assay on OVCAR-8 ovarian, the TGI is above 100 µM.
Consider `O=S(=O)(O)c1cc(S(=O)(=O)O)c2cc(N=Nc3ccc(N=Nc4ccc(/C=C/c5ccc(N=[N+]([O-])c6ccc(/C=C/c7ccc(N=Nc8ccc(N=Nc9ccc%10cc(S(=O)(=O)O)cc(S(=O)(=O)O)c%10c9)cc8)cc7S(=O)(=O)O)c(S(=O)(=O)O)c6)cc5S(=O)(=O)O)c(S(=O)(=O)O)c4)cc3)ccc2c1`, for which the TGI with SF-295 CNS is above 74.3 µM; in the assay on NCI-H23 lung, above 100 µM; in the assay with UO-31 renal it was above 100 µM; in the assay with EKVX NSCLC, above 100 µM; with HT29 colon it was above 100 µM; in the assay with NCI-H522 lung, above 100 µM. In the assay with OVCAR-8 ovarian, this molecule yielded a TGI above 100 µM.
With `O=S(=O)(O)c1ccc(O)c(N=Nc2c(O)ccc3ccccc23)c1`, the TGI in the assay with SF-295 CNS, in the assay with T-47D breast, in the assay on NCI-H23 lung, in the assay on UO-31 renal, with MDA-MB-435 and with EKVX NSCLC was above 100 µM throughout. Also, the TGI in the assay with HT29 colon, in the assay on NCI-H522 lung and in the assay with OVCAR-8 ovarian was above 100 µM throughout.
`COCC(C#N)NC1CC(OC2CC(O)(C(=O)CO)Cc3c(O)c4c(c(O)c32)C(=O)c2c(OC)cccc2C4=O)OC(C)C1O` (stereo not drawn): the TGI with SF-295 CNS came out at 1.9 µM; in the assay with NCI-H23 lung, 0.682 µM; in the assay on SR leukemia it was 0.15 µM; in the assay with UO-31 renal, 2.77 µM; in the assay with MDA-MB-435, 0.346 µM; in the assay on EKVX NSCLC, 4.62 µM. In addition, the TGI with HT29 colon is 9.03 µM; in the assay on NCI-H522 lung, 0.193 µM; in the assay with OVCAR-8 ovarian, 0.549 µM.
On to `CC(C)OC1=C(CC2(C)OCCO2)C(=O)C12OCCO2`, for which the TGI with SF-295 CNS, in the assay with T-47D breast, with NCI-H23 lung, in the assay with UO-31 renal, with MDA-MB-435 and in the assay on EKVX NSCLC was above 100 µM each time. For the same molecule, the TGI in the assay on HT29 colon, with NCI-H522 lung and in the assay with OVCAR-8 ovarian was above 100 µM throughout.
`C1=CC2C(C3CN(c4ccccc4)N=C13)C1C3C4C=CC21C=CC43` (stereo not drawn): the TGI in the assay on SF-295 CNS, with T-47D breast, with NCI-H23 lung, with UO-31 renal, with MDA-MB-435 and with EKVX NSCLC was above 100 µM in each case. Besides, the TGI with HT29 colon, in the assay with NCI-H522 lung and in the assay with OVCAR-8 ovarian was above 100 µM in each case.
For `COC(=O)/C1=C/C=C\C[C@@]2(C)CC(c3ccoc3)OC(=O)[C@@H]2CC[C@H]1C` (stereo partly drawn), the TGI in the assay with SF-295 CNS, with NCI-H23 lung, with SR leukemia, in the assay on UO-31 renal, with EKVX NSCLC and in the assay on HT29 colon was above 25 µM in each case. The TGI in the assay on OVCAR-8 ovarian was above 25 µM.
As for `NC1(c2cc3ccccc3s2)CCCCCC1`, the TGI in the assay on SF-295 CNS worked out at 32.5 µM; in the assay on NCI-H23 lung, 34 µM; in the assay on SR leukemia, 36.6 µM; with UO-31 renal, 28.1 µM; in the assay with MDA-MB-435, 29.7 µM; in the assay on EKVX NSCLC, 33.2 µM. Besides, the TGI in the assay on HT29 colon amounted to 29.3 µM; with OVCAR-8 ovarian it was 35.8 µM.
